Several values for one entry are separate records, joined by “and”; a condition that tells them apart may be missing. Equal values may be shown once. Read-outs that look alike come from different tables or passages of the source.
Tests used:
[1] = tested on: BN472 breast cancer; test: In vivo assay of WX-671 in the BN472 rat breast cancer model; design: species or system brown Norwegian rats; conditions: WX-UK1 1 mg/kg i.p. daily, 30 days
Procedure: The treatments started 72 h after tumor implantation and were repeated daily until the animals were sacrificed after 30 days. The control group (A) received 0.75 ml of the substance-free substance carrier solution consisting of 5% ethanol, 5% D-mannitol and 5% Tween 20 in water orally by gavage.
Growth of the inoculated tumors was determined in the dimensions length and width twice weekly, using a slide gauge. After the animals had been sacrificed, the therapy end points, tumor weight, weights of the axillary and intraperitoneal lymph nodes and also the number of macroscopic lung metastases were determined.

[2] = tested on: rat pancreatic tumor model, CA20948; test: In vivo test of WX-671 in the pancreatic adenocarcinoma model CA20948; conditions: 0.3 mg/kg by intraperitoneal injection; vehicle 30.7%
Procedure: Groups of eighteen rats were inoculated with tumor by intraperitoneal injection of a tumor cell suspension, prepared from a solid tumor harvested from a donor rat.
In this model the intraperitoneally grafted cells migrate to the pancreas to form a pancreatic tumor intimately associated with the pancreas. Within 3 weeks the tumor disseminates typically to the liver to form metastatic lesions which can be counted. Treatments at dose levels of 0.03, 0.3 and 3.0 mg/kg once daily were orally applied daily from day 3 onwards.
The percentage of large liver foci was determined by dividing the number of large lesions by the number of total lesion detected on the livers.

[3] = tested on: Hs 766T pancreatic cancer cell line; test: In vitro cytotoxicity MTT assay, Hs 766T; type: cell-based, human; conditions: 3 days
Procedure: (§1) The following experiment was performed to assess the potential of combination agents of the present disclosure for their capability of inhibiting the growth or proliferation of pancreatic cancer cells comprising contacting pancreatic cancer cells with effective amounts of the agents, alone and in combination, thereby inhibiting the growth or proliferation of the pancreatic cancer cells.
(§2) The present study investigated whether clarithromycin+rifabutin+clofazimine (“Combo”) would be synergistic with [3-(4-chlorophenyl)-adamantane-1-carboxylic acid (pyridin-4-ylmethyl)amide] (“ABC2640”) against MIA PaCa-2, PANC-1, and Hs 766T pancreatic cancer cell lines. Hs 766T is a cell line derived from the lymph node metastasis of a person with pancreas carcinoma. MIA PaCa-2 is a cell line derived from the pancreas adenocarcinoma of a person who presented with abdominal pain for 6 months and a palpable upper abdominal mass. PANC-1 was cultured from a person with an adenocarcinoma in the head of the pancreas which invaded the duodenal wall.
(§3) The MTT assay is commonly used to determine cytotoxicity of potential medicinal agents, since these types of materials are expected to stimulate or inhibit cell viability and growth. Briefly, 3,000 cells were plated/well—100 μl/well. After overnight, prior to the assay, 50 μl supernatant was removed from each well. Each drug was added at 4× of the final concentration (in 50 μl). Total volume of each well was 200 μl. 4 wells had been used as a control and contained no cells at all. The plate was developed after being incubated for 3 days at 37° C. 20 μl of Promega Substrate Cell Titer 96 Aqueous One Solution Reagent was added to each well, incubated at 37° C. and read OD at 490 nm. The MTT test is based on the enzymatic reduction of the tetrazolium salt MTT [3-(4,5-dimethylthiazol-2-yl)-2,5-diphenyl-tetrazoliumbromide^+++] in living, metabolically active cells but not in dead cells. The reaction is carried out in situ in multiwell plates, and the reaction product, a purple-colored formazan soluble in dimethylsulfoxide, is measured colorimetrically, using a multiwell plate reader.

[4] = tested on: MIA PaCa-2 pancreatic cancer cell line; test: In vitro cytotoxicity MTT assay, MIA PaCa-2; type: cell-based, human; conditions: 3 days
Procedure: as §1, §2, §3

[5] = tested on: PANC-1 pancreatic cancer cell line; test: In vitro cytotoxicity MTT assay, PANC-1; type: cell-based, human; conditions: 3 days
Procedure: as §1, §2, §3

[6] = tested on: human tumor cell strain K562-WT
Procedure: (§4) The human tumor cell strain K562-WT and the tumor cell strain F46-WT of the mouse (WT=wild type=sensitive to cytostatic treatment=no amplification of the MDR-gene) is treated over several weeks with staged increase in concentrations of adriamycin. […] The formation of resistance is based on the amplification of the MDR gene.

[7] = tested on: tumor cell strain F46-WT of the mouse; conditions: for formation of resistance to adriamycin: 6 to 8 weeks
Procedure: as §4
The tumor cell strain F4-6-WT of the mouse (WT=wild type=sensitive to cytostatic treatment=no amplification of the MDR gene) is treated over several weeks with staged increases in concentration of adriamycin. […] The formation of resistance is based on the amplification of the MDR gene. The levels of β-actin MRNA are likewise analyzed as comparison. β-actin is used as an internal control for the RNA quantity.

[8] = tested on: AH13r sarcoma cells; test: BVDU and chemotherapy-induced apoptosis in AH13r sarcoma cells; type: cell-based
Description: AH13r cells were subjected to increasing doses of the cytostatic mitomycin C (MMC). […] This inhibitory effect was maintained even after discontinuation of the cytostatic in the next cycle, in the so-called recovery phase. The cells without MMC and BVDU continued to grow without inhibition. […] The indication that the reduction in cell number is based on apoptosis, was detected by means of Hoechst 33258/propidium iodide (Hopi) double colouration.

[9] = tested on: Hep-G2 (liver); test: Tumor cell line panel, sulforhodamine B, Hep-G2; type: cell-based; conditions: Homo sapiens, HepG2, 48 hours, mean ± sd
Procedure: (§5) To examine the range of anticancer, the chemotherapeutic potency of ABC294640 towards a panel of varied human tumor cell lines representing several major tumor types were determined. […] [table]

[10] = tested on: T24 (bladder); test: Tumor cell line panel, sulforhodamine B, T24; type: cell-based; conditions: Homo sapiens, 48 hours, mean ± sd
Procedure: as §5

[11] = tested on: MCF-7 human breast adenocarcinoma cells; test: Cytotoxicity, SRB assay, MCF-7; type: cell-based; conditions: MCF7, 48 h, read-out: IC50 (concentration that inhibited proliferation by 50%)
Procedure: (§6) To assess the biological efficacy of ABC294640 in intact cells, ABC294640 was evaluated for cytotoxicity using human cancer cell lines. These experiments followed methods that have been extensively used. Cell lines tested included MCF-7 human breast adenocarcinoma cells and MCF-10A non-transformed human breast epithelial cells. The indicated cell lines were treated with varying doses of ABC294640 for 48 h. Cell survival was then determined using the SRB binding assay (Skehan et al., 1990, J Natl Cancer Inst 82: 1107), and the concentration of ABC294640 that inhibited proliferation by 50% (the IC50) was calculated. […] ABC294640 is antiproliferative at sub-to-low-micromolar.

[12] = tested on: MCF-10A non-transformed human breast epithelial cells; test: Cytotoxicity, SRB assay, MCF-10A; type: cell-based; conditions: 48 h, SRB binding assay, read-out: IC50 (concentration that inhibited proliferation by 50%)
Procedure: as §6

[13] = physchem; type: physicochemical; conditions: aqueous with cosolvent or surfactant or cyclodextrin
[14] = mouse, in vivo
Procedure: […]. […] ABC294640 could also be administered orally to mice at doses up to at least 100 mg/kg without noticeable toxicity.

[15] = tested on: mouse JC mammary adenocarcinoma cell line; test: Antitumor activity in syngeneic JC mammary adenocarcinoma model; type: in vivo, Balb/c mice
Procedure: The antitumor activity of ABC294640 was evaluated using a syngeneic tumor model that uses the mouse JC mammary adenocarcinoma cell line growing subcutaneously in immunocompetent Balb/c mice (Lee et al., 2003, Oncol Res 14: 49). These cells express elevated levels of SK activity relative to non-transformed cells, as well as the multidrug resistance phenotype due to P-glycoprotein activity.
Balb/c mice, 6-8 weeks old, were injected subcutaneously with 10^6 JC cells suspended in phosphate-buffered saline. ABC294640 was dissolved in PEG400 and administered to mice every-other day at a dose of 100 mg/kg. Body weights and tumor volumes were monitored daily. […] ABC294640 inhibited tumor growth relative to controls by 69%.

[16] = tested on: LPS-induced cytokine production; test: LPS-induced cytokine production in C57BL/6 mice; type: in vivo; conditions: serum 2 hours after LPS; dosed once 1 hour before LPS; dexamethasone 5 mg/kg i.p., RHB-104 108 mg/kg p.o.
Procedure: This study was performed to evaluate the effects of RHB-104 (as detailed above) dosed orally at 108 mg/kg on lipopolysaccharide (LPS)-induced cytokine production in mice. The LPS-induced cytokine production model in mice is commonly used to test the ability of compounds to suppress production of pro-inflammatory cytokines TNF and IL-6 in vivo.
In this model LPS is injected into mice intraperitoneally (i.p.) or intravenously. Two hours after the LPS injection, concentrations of IL-6 and TNF reach peak levels in serum of the injected mice.
30 female C57BL/6 mice, 11 weeks old, were dosed once with RHB-104, then injected with LPS 1 hour later. 2 hours after LPS injection, mice were bled and serum was isolated. The concentration of cytokines in serum was measured. Dexamethasone administered at 5 mg/kg i.p. was used as positive control for suppression of the immune response. Dexamethasone suppresses production of pro-inflammatory cytokines TNF and IL-6 increases production of anti-inflammatory cytokine IL-10.
Serum concentrations of IL-2, IL-4, IL-6, IL-10, IL-17, IFN-γ and TNF were measured using cytokine bead analysis (CBA) Th1/Th2/Th17 kit (Becton Dickinson). Concentrations of cytokines in serum between groups were compared using 2-tailed Student's t-test.

With `CCOC(=O)N1CCN(C(=O)[C@H](Cc2cccc(C(=N)N)c2)NS(=O)(=O)c2c(C(C)C)cc(C(C)C)cc2C(C)C)CC1` [WX-UK1, Na-(2,4,6-triisopropylphenylsulfonyl)-3-amidino-(L)-phenylalanine-4-ethoxycarbonylpiperazide] the “reduction of average tumor weights at the end of the treatment compared to the control” value [1] was “approx. 5%” and the “percentage large mets (>2 mm liver lesions of total liver lesions)” value [2] was 13.4%.

In the case of `O=C(NCc1ccncc1)C12CC3CC(C1)CC(c1ccc(Cl)cc1)(C3)C2` [ABC640, 3-(4-chlorophenyl)-adamantane-1-carboxylic acid (pyridin-4-ylmethyl)amide], the “Toxicity (%)” value ([3]; 25 μM) is reported as 17%, the “Toxicity (%)” value ([3]; 50 μM) is reported as 72% and the “Toxicity (%)” value ([4]; 25 μM) is reported as 11%. The “Toxicity (%)” value ([4]; 50 μM) was 92%, the “Toxicity (%)” value ([5]; 25 μM) was 0% and the “Toxicity (%)” value ([5]; 50 μM) was 68%.

With `O=c1[nH]c(=O)n(C2CC(O)C(CO)O2)cc1/C=C/Br` (centres unmarked) [BVDU, (E)-5-(2-bromovinyl)-2-deoxyuridine] the “formation of resistance to adriamycin” value ([6]; K562-WT, 0.5 or 1 μg/ml BVDU together with staged increasing adriamycin, 6 to 8 weeks) was “prevents the formation of resistance to adriamycin”, the “concentration from which BVDU acts in a toxic manner” value ([6]; human) was “about 10 μg/ml” and the “formation of resistance to adriamycin” value ([7]; F4-6-WT, 1 μg/ml BVDU with adriamycin) was “prevented the formation of resistance to adriamycin”. For the same molecule, the “formation of resistance to adriamycin” value ([7]; F46-WT, 0.5 or 1 μg/ml BVDU together with staged increasing adriamycin) was “prevents the formation of resistance to adriamycin”, the “concentration from which BVDU acts in a toxic manner” value ([7]; mouse) was “about 8 μg/ml” and the “toxic effect, given alone” value [8] was “no toxic effect”. For the same molecule, the “cell growth in the recovery phase after discontinuation of the cytostatic” value ([8]; continued BVDU without MMC) was “greatly inhibited in their growth”.

Work on `O=C(NCc1ccncc1)C12CC3CC(C1)CC(c1ccc(Cl)cc1)(C3)C2` [Compound 62, 3-(4-Chloro-phenyl)-adamantane-1-carboxylic acid(pyridin-4-ylmethyl)-amide] yielded an IC50 [9] of 6 ± 2.6 µM and an IC50 [10] of 39.4 ± 7.4 µM.

In the case of `O=C(NCc1ccncc1)C12CC3CC(C1)CC(c1ccc(Cl)cc1)(C3)C2` [ABC294640, 3-(4-chlorophenyl)-adamantane-1-carboxylic acid (pyridin-4-ylmethyl)amide], the IC50 [11] is reported as 17 µM, the IC50 [12] is reported as 21 µM and the solubility [13] is reported as ≥ 15000 µg/mL and 30000 µM to 40000 µM. The “dose with no immediate or delayed toxicity, acute toxicity” value ([14]; female, Swiss-Webster, ip) was “at least 50 mg/kg”, the “oral dose without noticeable toxicity” value ([14]; po) was “at least 100 mg/kg” and the “inhibition of tumor growth relative to controls” value ([15]; 100 mg/kg in PEG400 every-other day) was 69%. The “decrease of tumor growth versus control animals” value ([15]; 100 mg/kg in PEG400 every-other day, day 16) was greater than 70% and the “oral dose with antitumor activity (dose-response studies)” value ([15]; orally administered) was no less than 35 mg/kg.

For `CC(C)/N=c1\cc2n(-c3ccc(Cl)cc3)c3ccccc3nc-2cc1Nc1ccc(Cl)cc1` [clofazimine, Clofazimine], the “Toxicity (%)” value ([3]; 5 μM) was 62%, the “Toxicity (%)” value ([4]; 5 μM) was 4% and the “Toxicity (%)” value ([5]; 5 μM) was 41%.

In the case of `CCOC(=O)N1CCN(C(=O)[C@H](Cc2cccc(C(=N)N)c2)NS(=O)(=O)c2c(C(C)C)cc(C(C)C)cc2C(C)C)CC1.Cl` [UK-1], the “Toxicity (%)” value ([3]; 5 μM) is reported as 35%, the “Toxicity (%)” value ([3]; 10 μM) is reported as 28% and the “Toxicity (%)” value ([3]; 20 μM) is reported as 19%. The “Toxicity (%)” value ([4]; 5 μM) was 33%, the “Toxicity (%)” value ([4]; 10 μM) was 0% and the “Toxicity (%)” value ([4]; 20 μM) was 0%. For the same molecule, the “Toxicity (%)” value ([5]; 5 μM) was 0%, the “Toxicity (%)” value ([5]; 10 μM) was 0% and the “Toxicity (%)” value ([5]; 20 μM) was 14%.

In the case of `COc1cccc2c1C(=O)c1c(O)c3c(c(O)c1C2=O)C[C@@](O)(C(=O)CO)C[C@@H]3O[C@H]1C[C@H](N)[C@H](O)[C@H](C)O1` [adriamycin], the “toxic effect on non-resistant cells” value ([6]; K562-WT, 20 ng/ml, treatment time 4 days) is reported as “severely toxic effect”.

For `CC[C@H]1OC(=O)[C@H](C)[C@@H](O[C@H]2C[C@@](C)(OC)[C@@H](O)[C@H](C)O2)[C@H](C)[C@@H](O[C@@H]2O[C@H](C)C[C@H](N(C)C)[C@H]2O)[C@](C)(OC)C[C@@H](C)C(=O)[C@H](C)[C@@H](O)[C@]1(C)O` [clarithromycin, Clarithromycin], the “Toxicity (%)” value ([3]; 100 μM) was 29%, the “Toxicity (%)” value ([4]; 100 μM) was 0% and the “Toxicity (%)” value ([5]; 100 μM) was 7%.

In the case of `CO[C@H]1/C=C/O[C@@]2(C)Oc3c(C)c(O)c4c(c3C2=O)C2=NC3(CCN(CC(C)C)CC3)NC2=C(NC(=O)/C(C)=C\C=C\[C@H](C)[C@H](O)[C@@H](C)[C@@H](O)[C@@H](C)[C@H](OC(C)=O)[C@@H]1C)C4=O` [rifabutin, Rifabutin], the “Toxicity (%)” value ([3]; 70 μM) is reported as 20%, the “Toxicity (%)” value ([4]; 35 μM) is reported as 8% and the “Toxicity (%)” value ([5]; 70 μM) is reported as 0%.

In the case of `C[C@@H]1C[C@H]2[C@@H]3CCC4=CC(=O)C=C[C@]4(C)[C@@]3(F)[C@@H](O)C[C@]2(C)[C@@]1(O)C(=O)CO` [Dexamethasone, dexamethasone], the “IL-6 (pg/mL) ± SD” value [16] is reported as 1259 ± 295 pg/mL, the “IL-10 (pg/mL) ± SD” value [16] is reported as 106 ± 66 pg/mL and the “TNF (pg/mL) ± SD” value [16] is reported as 35 ± 10 pg/mL.
